Measurements published in ChEMBL document CHEMBL3396999, “2-Benzisothiazolylimino-5-benzylidene-4-thiazolidinones as protective agents against cartilage destruction” (Bioorg Med Chem, 2015).
Active and inactive are the calls of the source. The rule behind the calls is not given here.

Experiments:
[1] = Antioxidant activity assessed as AAPH radical scavenging activity assessed as Trolox equivalents by ORAC assay; assay type: physicochemical
[2] = Chondroprotective activity in IL-1beta-induced normal human articular chondrocytes assessed as reduction in nitric oxide level at 10 uM after 120 hrs by Griess reagent based method; assay type: functional
[3] = target: Collagenase 3 (Homo sapiens, UniProt P45452); test: Inhibition of MMP13 catalytic domain (unknown origin) assessed as reduction in hydrolysis of Mca-Pro-Leu-Gly-Leu-Dpa-Ala-Arg-NH2 substrate measured for 3 mins after substrate addition by fluorescence assay
[4] = Chondroprotective activity in IL-1beta-induced normal human articular chondrocytes assessed as increase in glycosaminoglycans level at 10 uM by 1,9-dimethylmethylene blue staining based spectrophotometry relative to IL-1beta; assay type: functional
[5] = target: Stromelysin-1 (Homo sapiens, UniProt P08254); test: Inhibition of MMP3 catalytic domain (unknown origin) assessed as reduction in hydrolysis of Mca-Pro-Leu-Gly-Leu-Dpa-Ala-Arg-NH2 substrate measured for 3 mins after substrate addition by fluorescence assay
[6] = Toxicity against normal human articular chondrocytes assessed as reduction in cell viability by MTT assay
[7] = target: Nuclear factor NF-kappa-B complex (Homo sapiens) (UniProt Q00653+P19838+Q04206); test: Inhibition of nuclear factor-kappa-B in IL-1beta-induced normal human articular chondrocytes at 10 uM after 120 hrs by Western blotting method
[8] = Chondroprotective activity in IL-1beta-induced normal human articular chondrocytes assessed as MMP13 protein release at 10 uM after 120 hrs by ELISA method (reference value: 112 ng/ml); assay type: functional

Stromelysin-1, sequence (P08254 whole entry, the tested form may be a part): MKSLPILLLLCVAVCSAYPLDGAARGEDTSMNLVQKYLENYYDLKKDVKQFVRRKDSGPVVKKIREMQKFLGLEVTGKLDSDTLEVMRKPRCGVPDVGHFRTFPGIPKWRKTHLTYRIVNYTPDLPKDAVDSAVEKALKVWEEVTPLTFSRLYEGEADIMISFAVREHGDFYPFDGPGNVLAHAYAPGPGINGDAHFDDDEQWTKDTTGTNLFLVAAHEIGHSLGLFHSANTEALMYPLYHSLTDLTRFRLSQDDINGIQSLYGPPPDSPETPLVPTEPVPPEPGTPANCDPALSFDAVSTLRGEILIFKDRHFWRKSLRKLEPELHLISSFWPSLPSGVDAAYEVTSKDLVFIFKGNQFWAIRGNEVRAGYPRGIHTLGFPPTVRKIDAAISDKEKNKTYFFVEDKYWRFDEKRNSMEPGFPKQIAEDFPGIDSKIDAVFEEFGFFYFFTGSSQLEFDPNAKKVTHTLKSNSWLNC
Nuclear factor NF-kappa-B complex (Homo sapiens), sequence (P19838 whole entry, looked up): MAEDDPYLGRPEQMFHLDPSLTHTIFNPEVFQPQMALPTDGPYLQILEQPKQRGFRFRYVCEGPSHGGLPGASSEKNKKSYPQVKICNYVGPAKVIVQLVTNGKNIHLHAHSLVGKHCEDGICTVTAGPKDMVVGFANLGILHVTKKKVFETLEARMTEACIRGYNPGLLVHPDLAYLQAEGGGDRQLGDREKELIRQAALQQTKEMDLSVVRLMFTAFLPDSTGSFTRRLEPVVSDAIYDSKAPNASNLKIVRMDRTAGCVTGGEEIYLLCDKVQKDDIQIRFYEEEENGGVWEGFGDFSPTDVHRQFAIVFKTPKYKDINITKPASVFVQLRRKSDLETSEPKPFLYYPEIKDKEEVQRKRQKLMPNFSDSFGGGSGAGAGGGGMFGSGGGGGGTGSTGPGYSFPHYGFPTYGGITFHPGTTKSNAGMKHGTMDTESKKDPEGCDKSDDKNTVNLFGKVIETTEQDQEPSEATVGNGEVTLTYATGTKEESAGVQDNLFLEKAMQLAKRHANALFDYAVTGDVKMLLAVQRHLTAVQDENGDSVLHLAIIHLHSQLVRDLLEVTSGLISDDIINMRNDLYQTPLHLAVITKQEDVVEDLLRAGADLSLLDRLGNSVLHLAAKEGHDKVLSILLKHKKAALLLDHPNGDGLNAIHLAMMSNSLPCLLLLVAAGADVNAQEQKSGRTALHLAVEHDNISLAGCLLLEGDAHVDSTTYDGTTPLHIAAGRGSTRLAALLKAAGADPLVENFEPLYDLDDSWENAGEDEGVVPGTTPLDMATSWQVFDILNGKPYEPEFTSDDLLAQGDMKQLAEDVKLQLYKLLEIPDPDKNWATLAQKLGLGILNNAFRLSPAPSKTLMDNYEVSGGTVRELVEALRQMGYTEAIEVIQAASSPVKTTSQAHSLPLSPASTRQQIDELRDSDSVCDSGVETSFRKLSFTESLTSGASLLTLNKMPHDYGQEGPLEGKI
Nuclear factor NF-kappa-B complex (Homo sapiens), sequence (Q00653 whole entry, looked up): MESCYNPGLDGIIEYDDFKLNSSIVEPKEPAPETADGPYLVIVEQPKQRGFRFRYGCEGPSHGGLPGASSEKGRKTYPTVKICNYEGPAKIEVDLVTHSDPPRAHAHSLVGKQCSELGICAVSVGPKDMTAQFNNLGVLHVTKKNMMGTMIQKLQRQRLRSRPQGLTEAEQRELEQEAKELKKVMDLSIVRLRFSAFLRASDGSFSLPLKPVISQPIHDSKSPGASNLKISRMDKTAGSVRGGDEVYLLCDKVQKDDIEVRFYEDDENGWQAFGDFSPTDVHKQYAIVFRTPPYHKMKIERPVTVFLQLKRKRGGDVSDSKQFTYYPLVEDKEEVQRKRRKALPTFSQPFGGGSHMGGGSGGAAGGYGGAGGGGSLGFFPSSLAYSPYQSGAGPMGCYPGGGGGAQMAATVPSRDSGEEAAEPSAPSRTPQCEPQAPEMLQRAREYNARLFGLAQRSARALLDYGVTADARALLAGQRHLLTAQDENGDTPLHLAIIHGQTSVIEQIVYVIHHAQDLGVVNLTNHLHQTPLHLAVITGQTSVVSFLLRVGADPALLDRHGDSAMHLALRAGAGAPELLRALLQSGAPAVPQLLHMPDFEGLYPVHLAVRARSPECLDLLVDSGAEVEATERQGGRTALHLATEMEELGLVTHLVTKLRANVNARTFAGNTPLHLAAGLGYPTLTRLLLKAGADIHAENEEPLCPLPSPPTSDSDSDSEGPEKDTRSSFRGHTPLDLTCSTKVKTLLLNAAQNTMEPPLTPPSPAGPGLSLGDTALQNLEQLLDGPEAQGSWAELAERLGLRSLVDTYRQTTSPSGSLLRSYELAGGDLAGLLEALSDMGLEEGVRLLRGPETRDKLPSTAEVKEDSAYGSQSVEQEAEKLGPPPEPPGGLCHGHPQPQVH
Nuclear factor NF-kappa-B complex (Homo sapiens), sequence (Q04206 whole entry, looked up): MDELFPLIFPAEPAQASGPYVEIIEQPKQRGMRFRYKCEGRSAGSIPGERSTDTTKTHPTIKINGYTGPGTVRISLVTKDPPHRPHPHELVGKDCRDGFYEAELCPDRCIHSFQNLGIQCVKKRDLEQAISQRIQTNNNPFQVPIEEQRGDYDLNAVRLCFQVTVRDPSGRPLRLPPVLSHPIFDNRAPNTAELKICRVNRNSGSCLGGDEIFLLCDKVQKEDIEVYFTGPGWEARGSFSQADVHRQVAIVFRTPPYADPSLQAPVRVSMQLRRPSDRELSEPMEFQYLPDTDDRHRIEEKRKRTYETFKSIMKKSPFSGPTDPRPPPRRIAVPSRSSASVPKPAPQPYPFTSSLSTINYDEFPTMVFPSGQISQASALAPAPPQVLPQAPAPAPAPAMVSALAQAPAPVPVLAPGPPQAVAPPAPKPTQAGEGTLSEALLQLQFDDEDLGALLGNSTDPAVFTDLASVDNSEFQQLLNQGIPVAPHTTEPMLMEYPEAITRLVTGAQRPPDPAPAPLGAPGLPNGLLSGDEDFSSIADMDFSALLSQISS

Activity [1] | IC50 [3] [µM] | IC50 [5] [µM] | inhibition [7] | Compound | inhibition at 10 µM [2] [%] | Activity [4] [%] | Activity [6] | Activity [8] [ng/mL]
1.64 | 25 | 65 | – | O=C1N/C(=N/c2nsc3ccccc23)S/C1=C\c1ccc(Cl)cc1 | 46 | 30 | Non-toxic | –
1.2 | 26.9 | ≥ 100 | – | O=C1N/C(=N/c2nsc3ccccc23)S/C1=C/c1cccc(O)c1 | 9 | 32 | Non-toxic | –
>= 100 | 55.9 | ≥ 100 | – | O=C1N/C(=N/c2nsc3ccccc23)S/C1=C\c1cccc([N+](=O)[O-])c1 | 46 | 37 | Non-toxic | –
1.35 | ≥ 100 | 3.15 | Active | COc1cc(/C=C2\S/C(=N\c3nsc4ccccc34)NC2=O)ccc1O | 66 | 40 | Non-toxic | 4.3
0.45 | 89.4 | 6.19 | – | O=C1N/C(=N/c2nsc3ccccc23)S/C1=C\c1ccccc1Cl | 13 | 34 | Non-toxic | –
– | 32 | ≥ 100 | – | O=C1N/C(=N/c2nsc3ccccc23)S/C1=C\c1ccccc1 | 42 | 28 | Non-toxic | –
0.8 | ≥ 100 | 97.4 | – | O=C1N/C(=N/c2nsc3ccccc23)S/C1=C/c1ccccc1O | 29 | 40 | Non-toxic | –
>= 100 | 64 | 43 | – | O=C1N/C(=N/c2nsc3ccccc23)S/C1=C\c1ccccc1[N+](=O)[O-] | 48 | 31 | Non-toxic | –
